Measurements published in ChEMBL document CHEMBL2331147, “Scutellarin from Scutellaria baicalensis suppresses adipogenesis by upregulating PPARα in 3T3-L1 cells” (J Nat Prod, 2013).
Active and inactive are the calls of the source. The rule behind the calls is not given here.

Legend:
3T3-L1 [1] = assay: Downregulation of C/EBPbeta mRNA expression in mouse 3T3L1 cells at 10 to 100 uM after 8 days by RT-PCR analysis; type: functional, cell-based
3T3-L1 [2] = assay: Antiadipogenic activity in mouse 3T3L1 cells assessed as upregulation of PPARalpha mRNA expression after 8 days by RT-PCR analysis; type: functional, cell-based
3T3-L1 [3] = assay: Antiadipogenic activity in mouse 3T3L1 cells assessed as downregulation of LPL mRNA expression at 10 to 100 uM after 8 days by RT-PCR analysis; type: functional, cell-based
3T3-L1 [4] = assay: Cytotoxicity against mouse 3T3L1 cells assessed as cell viability at < 100 uM after 48 hrs by MTT assay; type: cell-based; conditions: 3t3-l1, 48 h
3T3-L1 [5] = assay: Effect on PPARdelta mRNA expression in mouse 3T3L1 cells at 10 to 100 uM after 8 days by RT-PCR analysis; type: functional, cell-based
3T3-L1 [6] = assay: Antiadipogenic activity in mouse 3T3L1 cells assessed as downregulation of C/EBPalpha mRNA expression after 8 days by RT-PCR analysis; type: functional, cell-based
3T3-L1 [7] = assay: Antiadipogenic activity in mouse 3T3L1 cells assessed as downregulation of PPARgamma mRNA expression after 8 days by RT-PCR analysis; type: functional, cell-based
3T3-L1 [8] = assay: Antiadipogenic activity in mouse 3T3L1 cells assessed as decrease in intracellular lipid accumulation incubated for 8 days followed by compound wash out measured for 60 mins by Oil Red O staining-based phase contrast microscopic analysis; type: functional, cell-based

For `O=C(O)[C@H]1O[C@@H](Oc2cc3oc(-c4ccc(O)cc4)cc(=O)c3c(O)c2O)[C@H](O)[C@@H](O)[C@@H]1O` [SCUTELLARIN], the Activity (3T3-L1 [1]) was “inactive”, the Activity (3T3-L1 [2]) was “Dose-dependent effect” and the Activity (3T3-L1 [3]) was “Active”. For the same compound, the Activity (3T3-L1 [4]) was “Non-toxic”, the Activity (3T3-L1 [5]) was “inactive” and the Activity (3T3-L1 [6]) was “Dose-dependent effect”. The Activity (3T3-L1 [7]) was “Dose-dependent effect” and the Activity (3T3-L1 [8]) was “Dose-dependent effect”.
